Key:
[1] = tested on: constitutively active ALK-4, ALK-5, and ALK-7; set-up: dose or concentration left out as unconfirmed; conditions: transfected NIH 3T3 cells; cited from earlier work
ALK-1, -2, -3, and -6 = conditions: cited from earlier work
TEVG stenosis = assay: Tissue-engineered vascular graft (TEVG) stenosis model; format: in vivo, mice
Source text: Scaffolds were constructed from a nonwoven polyglycolic acid (PGA) mesh (Concordia Fibers) and a co-polymer sealant solution of poly-L-lactide and -ε-caprolactone (P(CL/LA)) as previously described (Roh J D, et al. Biomaterials. 29(10):1454 (2008)). For scaffold seeding studies, bone marrow was collected from the femurs of syngeneic C57BL/6 mice. Following purification of the mononuclear cell component using Histopaque-1086 (Sigma) centrifugation, one million mononuclear cells were manually pipetted onto the scaffold. The seeded scaffold was incubated in RPMI 1640 Medium (Gibco) overnight prior to implantation as previously described (Roh J D, et al. Biomaterials. 29(10):1454 (2008)).
sFGFR1-IIIc adenovirus was previously described (Murakami M, et al. J Clin Invest. 118(10):3355 (2008)) at a dose of 5×10^10 viral particles per mouse 1 week prior to TEVG implantation by tail vein injection. Control mice were given equivalent volumes of sterile PBS. Serum level of sFGFR1-IIIc was measured by a Human IgG Subclass Profile kit (Invitrogen).
Mice treated with TGFβRI kinase inhibitor were treated with SB431542 hydrate (Sigma) in DMSO given by intraperitoneal injection twice a day from post-operative day 0 to post-operative day 14 at a dose of 10 mg/kg. Control mice were treated with equivalent volumes of sterile DMSO.
Explanted grafts were pressure fixed in 10% formalin overnight and then embedded in paraffin or glycolmethacrylate using previously published methods (Roh J D, et al. Proc Natl Acad Sci USA. 107(10):4669 (2010)). Sections were stained with H&E or Gomori Trichrome. Graft luminal diameters were measured using ImageJ software. Stenosis was defined as greater than 50% decrease in luminal diameter. Critical stenosis was defined as 80% narrowing of the luminal diameter. Graft occlusion was defined as 100% narrowing of the luminal diameter. For EM studies scaffolds were cut into 0.5 mm thick cross-sections and imaged on a […] scanning electron microscope (Hillsboro) as previously described (Roh J D, et al. Biomaterials. 29(10):1454 (2008)). TGFβ positive cell area was measured using ImageJ software. Two separate sections of each explant were counterstained with hematoxalin and imaged at 400× magnification. The number of nuclei was then counted in five regions of each section and averaged. LacZ/SMA colocalized cells were quantified in the same manner using double immunofluorescent staining imaged under 60× confocal magnification.

[2] = SB-431542 release from microparticles and scaffolds; format: physicochemical
Procedure: Total encapsulation was approximated as the amount of SB-431542 released over a 14-day period. Percent encapsulation efficiency was calculated as total encapsulation divided by maximum theoretical encapsulation. 5 mg of avidin-coated PLGA microparticles containing SB-431542, PGA-P(CL/LA) trimmed scaffolds and treated with pLLB and SB-431542-eluting microparticles as above, and SB-431542-eluting PGA-P(CL/LA) trimmed scaffolds were incubated with PBS in triplicate on a rotary shaker at 37° C. Samples were removed at specific time points and centrifuged at 13200 RPM for 10 minutes. 300 μl of supernatant was drawn and replaced with 300 μl PBS. Concentration of SB-431542 in supernatant diluted with 600 μl PBS was determined by spectrophotometry at 320 nm.

[3] = Tie2-CreXRosa26 mice, 10 mg/kg twice daily intraperitoneal for 2 weeks, vs DMSO

Q: Which “Phosphorylation of Smad2 by constitutively active ALK-4, ALK-5, and ALK-7” value [1] does the source give for `NC(=O)c1ccc(-c2nc(-c3ccc4c(c3)OCO4)c(-c3ccccn3)[nH]2)cc1` [SB431542, 4-[4-(1,3-Benzodioxol-5-yl)-5-(2-pyridinyl)-1H-imidazol-2-yl]-benzamide] here?
A: completely abolished

Q: What about the “Effect on ALK-1, -2, -3, and -6 and hence BMP signaling” value (ALK-1, -2, -3, and -6) of the same molecule?
A: without effect

Q: What about the TEVG luminal diameter (TEVG stenosis; [3]) of the same molecule?
A: significantly increases

Q: And the graft patency (TEVG stenosis; [3])?
A: significantly increases

Q: What about the “LacZ-positive smooth muscle cells in occluded grafts” value (TEVG stenosis; Tie2 lineage-tracing mice, drug treated) of the same molecule?
A: significant reduction

Q: What about the Patency (TEVG stenosis; local drug delivery (drug in microparticles, drug in solvent), 2 weeks, unseeded grafts, mouse model) of the same molecule?
A: significantly increases

Q: And the neotissue creation (TEVG stenosis; local drug delivery, unseeded grafts, mouse model)?
A: enabled neotissue creation

Q: And the “neotissue creation (CD31 positive endothelial layer lining SMA positive smooth muscle layer)” value (TEVG stenosis; systemic treatment, 10 mg/kg twice daily intraperitoneal)?
A: proper neotissue creation

Q: And the “Release of the drug” value ([2]; PLGA microparticle system tethered to TEVG scaffold, full 2-week time course)?
A: steady release

Q: What about the Release profile ([2]; inhibitor added to the solvent used to make the grafts) of the same molecule?
A: favorable release profile

— patent US9782522B2, “Compositions and methods for treating and preventing neointimal stenosis” (Yale University, priority 2011, dated 2017)
